From patent publication US20210300940A1 (Merck Patent GmbH, priority 2018, published 2021) come the findings set out here.

Some results are limits rather than exact numbers.

One assay addresses T1, TLR7 (Homo sapiens, UniProt Q9NYK1).
T1 construct: expressed in transfected cells; host or cells: HEK/293 cells carrying TLR7 and an NF-kB luciferase reporter
T1 sequence (Q9NYK1 27-1049): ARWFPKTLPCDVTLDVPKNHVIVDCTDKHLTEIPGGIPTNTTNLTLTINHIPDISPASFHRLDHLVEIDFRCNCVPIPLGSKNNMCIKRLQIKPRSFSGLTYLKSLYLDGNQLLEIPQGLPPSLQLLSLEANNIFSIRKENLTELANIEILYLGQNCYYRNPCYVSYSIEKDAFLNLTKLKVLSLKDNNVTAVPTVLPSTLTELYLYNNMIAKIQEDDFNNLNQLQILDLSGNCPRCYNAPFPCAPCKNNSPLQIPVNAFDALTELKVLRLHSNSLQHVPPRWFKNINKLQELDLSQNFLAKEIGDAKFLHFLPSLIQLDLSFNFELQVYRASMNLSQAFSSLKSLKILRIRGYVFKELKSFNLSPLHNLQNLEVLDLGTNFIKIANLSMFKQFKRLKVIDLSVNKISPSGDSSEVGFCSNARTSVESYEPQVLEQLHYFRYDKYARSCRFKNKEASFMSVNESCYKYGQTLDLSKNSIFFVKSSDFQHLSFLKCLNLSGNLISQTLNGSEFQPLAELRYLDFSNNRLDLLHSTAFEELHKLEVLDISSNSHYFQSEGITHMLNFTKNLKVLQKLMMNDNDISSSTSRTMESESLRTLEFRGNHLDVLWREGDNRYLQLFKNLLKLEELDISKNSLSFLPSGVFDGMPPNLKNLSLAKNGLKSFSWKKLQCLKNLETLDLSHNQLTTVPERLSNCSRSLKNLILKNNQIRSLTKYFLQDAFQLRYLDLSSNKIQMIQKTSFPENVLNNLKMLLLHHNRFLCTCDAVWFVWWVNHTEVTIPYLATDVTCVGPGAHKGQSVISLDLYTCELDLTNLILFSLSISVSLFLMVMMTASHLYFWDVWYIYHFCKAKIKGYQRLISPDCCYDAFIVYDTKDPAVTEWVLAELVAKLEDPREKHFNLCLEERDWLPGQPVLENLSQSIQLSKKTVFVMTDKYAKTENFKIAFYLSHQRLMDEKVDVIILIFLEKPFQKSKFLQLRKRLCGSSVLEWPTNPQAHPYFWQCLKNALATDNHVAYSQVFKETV
Put plainly: HEK/293 TLR7 Cell Assay. The class given is cell-based. The following applies: TLR7/NFKb HEK cells, R848 agonist 10 uM final concentration, Steady-Glo readout; read-out: TLR7 potency. Put shortly:
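TLR7/NF-κB reporter HEK293 cells, 5000/well, cultured 24 h, then preincubated 30 min with compound before R848 agonist (10 uM final). After 5 h stimulation, Steady-Glo luciferase luminescence read.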

The target of the next assay is T2, TLR8 (Homo sapiens, UniProt Q9NR97).
T2 construct: expressed in transfected cells; host or cells: HEK/293 reporter cells (NF-kB luciferase)
T2 sequence (Q9NR97 27-1041): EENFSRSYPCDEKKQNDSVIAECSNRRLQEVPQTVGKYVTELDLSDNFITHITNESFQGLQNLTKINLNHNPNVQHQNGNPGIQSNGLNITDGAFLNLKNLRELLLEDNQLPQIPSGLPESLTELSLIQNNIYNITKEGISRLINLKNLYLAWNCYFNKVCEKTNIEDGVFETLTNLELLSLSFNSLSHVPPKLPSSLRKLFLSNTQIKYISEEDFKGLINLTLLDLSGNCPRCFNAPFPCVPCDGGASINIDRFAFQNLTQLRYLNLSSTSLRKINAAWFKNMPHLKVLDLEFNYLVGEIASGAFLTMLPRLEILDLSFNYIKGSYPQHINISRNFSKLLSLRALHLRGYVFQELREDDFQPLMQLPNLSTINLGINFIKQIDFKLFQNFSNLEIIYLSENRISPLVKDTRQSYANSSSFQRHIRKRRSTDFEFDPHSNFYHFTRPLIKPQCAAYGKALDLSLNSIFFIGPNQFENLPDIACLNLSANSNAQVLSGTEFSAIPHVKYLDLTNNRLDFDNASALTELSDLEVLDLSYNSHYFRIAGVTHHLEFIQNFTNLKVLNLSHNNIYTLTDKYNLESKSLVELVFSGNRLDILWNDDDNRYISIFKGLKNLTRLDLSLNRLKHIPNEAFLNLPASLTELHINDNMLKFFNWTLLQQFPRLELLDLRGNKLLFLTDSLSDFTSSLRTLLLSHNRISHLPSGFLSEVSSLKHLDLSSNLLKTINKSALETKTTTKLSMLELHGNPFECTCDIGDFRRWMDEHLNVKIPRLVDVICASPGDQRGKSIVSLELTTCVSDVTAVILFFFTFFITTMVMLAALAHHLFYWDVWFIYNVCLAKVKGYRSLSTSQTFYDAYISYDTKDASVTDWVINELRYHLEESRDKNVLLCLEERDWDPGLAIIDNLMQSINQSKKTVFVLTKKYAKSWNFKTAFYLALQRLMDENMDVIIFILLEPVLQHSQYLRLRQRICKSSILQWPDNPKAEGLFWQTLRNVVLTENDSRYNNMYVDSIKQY
Put plainly: HEK/293 TLR8 Cell Assay. As to conditions: HEK cells, R848 agonist 30 uM final concentration, Steady-Glo readout; read-out: TLR8 potency. Type of assay: cell-based.

On to `C[C@@H]1CN(c2ccc(C#N)c3nccnc23)C[C@H](C(=O)NC2CCC(=O)NC2=O)O1` (stereo partly drawn) [Example 236, (2R,6R)-4-(8-Cyano-quinoxalin-5-yl)-6-methyl-morpholine-2-carboxylic acid (2,6-dioxo-piperidin-3-yl)-amide], for which the IC50 on TLR7 and on TLR8 was 75 to 150 nM each time.

Turning to `C[C@@H]1CN(c2ccc(C#N)c3nccnc23)C[C@H](C(=O)NCC(O)C(F)(F)F)O1` (stereo partly drawn) [Example 237, (2R,6R)-4-(8-Cyano-quinoxalin-5-yl)-6-methyl-morpholine-2-carboxylic acid (3,3,3-trifluoro-2-hydroxy-propyl)-amide], the IC50 on TLR7 and at TLR8 was under 75 nM in each case.

Take `C[C@@H]1CN(c2ccc(C#N)c3nccnc23)C[C@H](C(=O)NC[C@@H](C)O)O1` [Example 238, (2R,6R)-4-(8-Cyano-quinoxalin-5-yl)-6-methyl-morpholine-2-carboxylic acid ((R)-2-hydroxy-propyl)-amide]: the IC50 at TLR7 and at TLR8 was under 75 nM each time.

`C[C@@H]1CN(c2ccc(C#N)c3nccnc23)C[C@H](C(=O)NCCN2CCS(=O)(=O)CC2)O1` [Example 239, (2R,6R)-4-(8-Cyano-quinoxalin-5-yl)-6-methyl-morpholine-2-carboxylic acid [2-(1,1-dioxo-1lambda6-thiomorpholin-4-yl)-ethyl]-amide]: the IC50 was under 75 nM on TLR7 and over 150 nM at TLR8.

For `C[C@@H]1CN(c2ccc(C#N)c3nccnc23)C[C@H](C(=O)NCC2CN(C)CCO2)O1` (stereo partly drawn) [Example 240, (2R,6R)-4-(8-Cyano-quinoxalin-5-yl)-6-methyl-morpholine-2-carboxylic acid (4-methyl-morpholin-2-ylmethyl)-amide], the IC50 at TLR7 and at TLR8 was under 75 nM each time.

Consider `C[C@@H]1CN(c2ccc(C#N)c3nccnc23)C[C@H](C(=O)NC2CCN(CC3CC3)C2)O1` (stereo partly drawn) [Example 241, (2R,6R)-4-(8-Cyano-quinoxalin-5-yl)-6-methyl-morpholine-2-carboxylic acid (1-cyclopropylmethyl-pyrrolidin-3-yl)-amide], for which the IC50 at TLR7 and on TLR8 was under 75 nM each time.

Consider `CC(=O)N1CCC(NC(=O)[C@H]2CN(c3ccc(C#N)c4nccnc34)C[C@@H](C)O2)CC1` [Example 242, (2R,6R)-4-(8-Cyano-quinoxalin-5-yl)-6-methyl-morpholine-2-carboxylic acid (1-acetyl-piperidin-4-yl)-amide], for which the IC50 at TLR7 and on TLR8 was under 75 nM each time.

As to `CC(=O)NCCNC(=O)[C@H]1CN(c2ccc(C#N)c3nccnc23)C[C@@H](C)O1` [Example 243, (2R,6R)-4-(8-Cyano-quinoxalin-5-yl)-6-methyl-morpholine-2-carboxylic acid (2-acetylamino-ethyl)-amide], the values for the IC50 on TLR7 and at TLR8 were 75 to 150 nM and over 150 nM, respectively.

As to `CCN(C)CCNC(=O)[C@H]1CN(c2ccc(C#N)c3nccnc23)C[C@@H](C)O1` [Example 244, (2R,6R)-4-(8-Cyano-quinoxalin-5-yl)-6-methyl-morpholine-2-carboxylic acid [2-(ethyl-methyl-amino)-ethyl]-amide], the IC50 at TLR7 and at TLR8 was under 75 nM in each case.

Turning to `C[C@@H]1CN(c2ccc(C#N)c3nccnc23)C[C@H](C(=O)NCC2CCCN2C)O1` (stereo partly drawn) [Example 245, (2R,6R)-4-(8-Cyano-quinoxalin-5-yl)-6-methyl-morpholine-2-carboxylic acid (1-methyl-pyrrolidin-2-ylmethyl)-amide], the IC50 on TLR7 and at TLR8 was under 75 nM in each case.

Take `C[C@@H]1CN(c2ccc(C#N)c3nccnc23)C[C@H](C(=O)NCC(C)(C)O)O1` [Example 246, (2R,6R)-4-(8-Cyano-quinoxalin-5-yl)-6-methyl-morpholine-2-carboxylic acid (2-hydroxy-2-methyl-propyl)-amide]: the IC50 at TLR7 and on TLR8 was under 75 nM each time.

Turning to `C[C@@H]1CN(c2ccc(C#N)c3nccnc23)C[C@H](C(=O)NC2CCN(CC(F)(F)F)CC2)O1` [Example 247, (2R,6R)-4-(8-Cyano-quinoxalin-5-yl)-6-methyl-morpholine-2-carboxylic acid [1-(2,2,2-trifluoro-ethyl)-piperidin-4-yl]-amide], the IC50 on TLR7 and at TLR8 was under 75 nM in each case.

In the case of `CC[C@@H](NC(=O)[C@H]1CN(c2ccc(C#N)c3nccnc23)C[C@@H](C)O1)C(N)=O` [Example 248, (2R,6R)-4-(8-Cyano-quinoxalin-5-yl)-6-methyl-morpholine-2-carboxylic acid ((R)-1-carbamoyl-propyl)-amide], the IC50 on TLR7 was 75 to 150 nM; at TLR8 it was under 75 nM.

Consider `C[C@@H]1CN(c2ccc(C#N)c3nccnc23)C[C@H](C(=O)NC[C@H](O)C(F)(F)F)O1` [Example 249, (2R,6R)-4-(8-Cyano-quinoxalin-5-yl)-6-methyl-morpholine-2-carboxylic acid ((S)-3,3,3-trifluoro-2-hydroxy-propyl)-amide], for which the IC50 at TLR7 and on TLR8 was under 75 nM throughout.

For the compound `C[C@@H]1CN(c2ccc(C#N)c3nccnc23)C[C@H](C(=O)NC[C@@H](O)C(F)(F)F)O1` [Example 250, (2R,6R)-4-(8-Cyano-quinoxalin-5-yl)-6-methyl-morpholine-2-carboxylic acid ((R)-3,3,3-trifluoro-2-hydroxy-propyl)-amide], the IC50 on TLR7 and on TLR8 was under 75 nM throughout.

As for `C[C@@H]1CN(c2ccc(C#N)c3nccnc23)C[C@H](C(=O)N2CC3(C2)CS(=O)(=O)C3)O1` [Example 251, 8-[(2R,6R)-2-(2,2-Dioxo-2lambda6-thia-6-aza-spiro[3.3]heptane-6-carbonyl)-6-methyl-morpholin-4-yl]-quinoxaline-5-carbonitrile], the IC50 at TLR7 and on TLR8 was over 150 nM throughout.

In the case of `COCC(O)CNC(=O)[C@H]1CN(c2ccc(C#N)c3nccnc23)C[C@@H](C)O1` (stereo partly drawn) [Example 252, (2R,6R)-4-(8-Cyano-quinoxalin-5-yl)-6-methyl-morpholine-2-carboxylic acid (2-hydroxy-3-methoxy-propyl)-amide], the IC50 at TLR7 is 75 to 150 nM; at TLR8, under 75 nM.

As for `C[C@@H]1CN(c2ccc(C#N)c3nccnc23)C[C@H](C(=O)NCC2(F)CCN(C)CC2)O1` [Example 253, (2R,6R)-4-(8-Cyano-quinoxalin-5-yl)-6-methyl-morpholine-2-carboxylic acid (4-fluoro-1-methyl-piperidin-4-ylmethyl)-amide], the IC50 on TLR7 and on TLR8 was under 75 nM throughout.
